The source of these data is patent publication US11702402B2, “Small molecules that block proteasome-associated ubiquitin receptor RPN13 function and uses thereof” (DANA-FARBER CANCER INSTITUTE, INC., priority 2018, dated 2023).

“Also recorded” adds a separate entry of the source.

Series [1] has as its system multiple myeloma cell lines. Nature of the series: Viability of a panel of multiple myeloma cell lines. It counts as cell-based, Human. From the text:
FIGS. […] Wst-1 assay was used to test cell viability. FIGS. 6A and 6B show the effect of exemplary bifunctional compounds WL40 and WL44 on multiple myeloma cell lines.

The subject of series [2] is human MM.1S MM tumors. Nature of the series: Human MM xenograft model. Particulars: for host survival / tumor growth: MM.1S-bearing mice, i.p., WL40 14.7 μM/kg, RA190 26.8 μM/kg; for host survival: twice weekly; for tumor growth: twice weekly for 18 days. It counts as in vivo. Here is the method: FIG. 23B are Kaplan-Meier plots which show survival of mice. […] The lysates were subjected to the immunoblot analysis using anti-polyubiquitin, anti-cleaved-caspase-8, or anti-β-actin Abs. FIG. 23D show tumor sections from the vehicle control, and WL40-treated mice that were stained with anti-polyubiquitin, Ki67, caspase-3 (cleaved form), and CD31 antibodies. Scale bar, 10 μm.
Animal model studies were performed as described previously.^32, 33, 36 Briefly, CB17 SCID mice were subcutaneously inoculated with 5.0×10^6 MM.1S cells. When tumors were measurable (100 mm^3) at approximately 3 weeks after MM-cell injection, mice (10 mice/group) were treated on a twice-weekly schedule with vehicle alone, WL40, or RA190. Mice were euthanized when tumor volume reached institutional limit (2000 mm^3). All animal experiments protocols were approved by and conformed to the relevant regulatory standards of the Institutional Animal Care and Use Committee at the Dana-Farber Cancer Institute.
Tumors were harvested from WL40-treated and control animals. Tumor sections were fixed and paraffin embedded for immunostaining to detect growth inhibition (Ki67), apoptosis (cleaved caspase-3), poly-ubiquitination (PolyU), and angiogenesis (CD31), as described previously.^32, 34 Tumor protein lysates from control vehicle- and WL40-treated mice were analyzed for caspase-8, poly-Ubiquitin or β-actin level using immunoblot analyses.
To fully understand the therapeutic potential of the RPN13 degrader, the in vivo efficacy of WL40 was evaluated using the human plasmacytoma xenograft mouse model.^3, 34 This model has been useful in validating novel anti-MM therapies bortezomib, carfilzomib, ixazomib, lenalidomide, and pomalidomide, which have translated to clinical trials and FDA approval.
In general terms: In xenograft studies the graft and the host belong to different species.

Series [3] concerns MM.1S cells. Nature of the series: MM.1S cell viability (WST). The following applies: for combination effect on viability (isobologram, CI): 48 hours, WST.
Experimental: FIGS. 4A and 4B show multiple myeloma 1S (MM.1S) cells treated with RA190, WL40, and WL44 at the indicated concentrations for 24 hours. Wst-1 assay was used to test cell viability.
In FIG. 13B, multiple myeloma cells (MM.1S) were treated with RA190 or compound JQRA at the indicated concentrations for 72 hours, and the percentage of viable cells was measured.
Purified CD138^+ patient MM cells, which were treated with DMSO control or WL40 at indicated concentrations for 48 hours, followed by assessment for cell viability using CellTiter-Glo assay (mean±SD of triplicate cultures; p<0.001). […] Normal PBMCs from healthy donors were treated with DMSO control or WL40 at indicated concentrations for 48 hours, and then analyzed for cell viability using CellTiter-Glo assay (mean±SD of quadruplicate cultures). […] MM.1S cells were cultured with or without patient BMSCs in the presence or absence of WL40 for 48 hours, and cell proliferation was measured by WST assay (mean±SD; n=3; p<0.0001). […] MM.1S cells were cultured with or without patient pDCs in the presence or absence of WL40 for 48 hours, and cell proliferation was measured by WST assay (mean±SD; n=3; p<0.0001).
Series [4] deals with RPN13 (Homo sapiens, UniProt Q16186). Nature of the series: Rpn13 immunoblot in MM.1S cells. It counts as cell-based. Also on record: endogenous in cells; host or cells: MM.1S; MM.1S-CRBN KO; RPMI-8226; ANBL6.BR. Particulars: MM.1S cells; for Rpn13 levels (immunoblot): 200 nM, 400 nM, 800 nM, 4, 8, 16 hours. Here is the method:
Protein lysates were loaded on SDS-PAGE and transferred to PVDF membrane, and then immunoblotted with anti-alpha tubulin and Rpn13 antibodies.
In FIG. 17, MM.1S cells were treated with RA190 or JQRA at 200 nM and 400 nM, respectively, for 48 hours; and treated with RA190 or JQRA at 200 nM and 800 nM, respectively, for 48 hours. Protein lysates were loaded on SDS-PAGE and transferred to PVDF membrane, and then immunoblotted with anti-alpha tubulin and Rpn13 antibodies.
(§1) MM.1S cells, which were treated with DMSO control, bortezomib, or WL40 at indicated concentration for 3 hours; protein lysates were analyzed for different proteasome activities (CT-L, chymotrypsin-like; T-L, trypsin-like; C-L, caspase-like). FIG. 20B is a bar graph showing percent proteasome activity after normalization with DMSO control (mean±SD; n=3). Recombinant 20S proteasome was incubated with DMSO, bortezomib, or WL40 for 30 minutes, followed by assessment of the above-noted proteasome activities. FIG. 20C MM.1S cells were pretreated with exemplary proteasome inhibitor MG132 (10 μM) for 1 hour, followed by addition of WL40 (400 nM) for 8 hours. […] Total protein lysates were subjected to immunoblots for Rpn13 and α-tubulin. […] FIG. 20E ANBL6.BR cells were treated with WL40 (400 nM) or RA190 (500 nM) for 16 hours; protein lysates were subjected to immunoblot analysis using anti-Rpn13 or anti-β-actin Abs.
Cellular protein extracts were prepared using RIPA lysis buffer (50 mM Tris-HCl, 150 mM NaCl, 1% NP-40, 0.5% sodium deoxycholate, and 0.1% SDS). Protein lysates were subjected to immunoblotting using antibodies against poly ADP ribose polymerase (PARP, BD Bioscience Pharmingen, San Diego, Calif.), caspase 3, caspase 8, p53 (Santa Cruz Biotechnology), caspase 9, p-eIF2a (Abeam, Cambridge, Mass.), caspase 7, cyclin B1, CDC25C, CDCl2, p21, Rpn13, PERK, BIP, Calnexin, GFP, LC3A/B, α-tubulin (Cell Signaling, Beverly, Mass.), polyubiquitin (Enzo Life Sciences, Inc., Farmingdale, N.Y.), or β-actin (Sigma-Aldrich, St. Louis, Mo.).
Next, it was examined whether WL40 decreases cellular Rpn13 levels in MM cells. MM.1S cells were treated with various concentrations of WL40 (20 0 nM, 400 nM, or 800 nM) for 4 hours, 8 hours, and 16 hours; protein lysates were then analyzed for Rpn13 levels using immunoblot analysis. […] Decrease in Rpn13 levels was detectable as early as 8 hours after WL40 treatment and maximally (95%) reduced at 16 hours. Rpn13 protein level reduction was not observed with RA190 treatment (FIG. 19E, lower panel). There was no change in protein levels of tubulin, used as a loading control (FIG. 19E). To further corroborate the findings, MM.1S cells were treated with WL40, and then analyzed intracellular alterations in Rpn13 using flow cytometry.
Background: In western blotting, separated proteins are transferred to a membrane and probed.

In series [5] the test system is polyubiquitinated (PolyUb) protein. The series is described as follows: Polyubiquitinated protein immunoblot in MM.1S and ANBL6.BR cells. It is filed as cell-based, Human. Particulars: MM.1S: WL40 200 nM, RA190 300 nM, bortezomib 5 nM; ANBL6.BR: WL40 1 μM 6 hours. Here is the method:
as §1
Cellular protein extracts were prepared using RIPA lysis buffer (50 mM Tris-HCl, 150 mM NaCl, 1% NP-40, 0.5% sodium deoxycholate, and 0.1% SDS). […]
Next, the effect of WL40 on additional MM cell lines, including p53-mutated RPMI-8226 cells or bortezomib-resistant ANBL6.BR cells, was evaluated. […]

Chain of RPN13 (Q16186 whole entry): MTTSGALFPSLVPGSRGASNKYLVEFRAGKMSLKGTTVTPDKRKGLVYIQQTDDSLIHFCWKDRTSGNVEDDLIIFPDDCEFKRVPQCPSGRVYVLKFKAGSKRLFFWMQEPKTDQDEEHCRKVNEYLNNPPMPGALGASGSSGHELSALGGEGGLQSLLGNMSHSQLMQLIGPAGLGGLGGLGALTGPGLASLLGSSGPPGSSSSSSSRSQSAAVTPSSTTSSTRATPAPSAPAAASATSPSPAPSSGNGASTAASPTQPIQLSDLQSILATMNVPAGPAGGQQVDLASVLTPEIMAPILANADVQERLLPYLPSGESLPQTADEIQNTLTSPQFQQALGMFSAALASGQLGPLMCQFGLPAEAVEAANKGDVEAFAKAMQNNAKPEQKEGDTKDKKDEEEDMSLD

With `Cl.N[C@@H](Cc1ccccc1)C(=O)N1C/C(=C/c2ccc(Cl)c(Cl)c2)C(=O)/C(=C\c2ccc(Cl)c(Cl)c2)C1` [RA190, reference compound], the “cytotoxicity (percentage of viable cells)” value in series [1] (different multiple myeloma cell lines, 72 hours) is “stronger cytotoxicity than JQRA”. Besides, in series [2], the host survival entry is “extends mice survival” and the tumor growth entry is “attenuates MM tumor progression”. Moreover, the “cytotoxicity (percentage of viable cells)” value in series [3] (72 hours) is on record as “stronger MM cytotoxicity compared to exemplary compound JQRA; also recorded: more robust MM cytotoxicity”. Also, in series [4], the “Rpn13 levels (immunoblot)” value is on record as “not observed”.
For the compound `O=C1CCC(N2C(=O)c3cccc(NCCOCCOCCOCCC(=O)N[C@@H](Cc4ccccc4)C(=O)N4C/C(=C\c5ccc(Cl)c(Cl)c5)C(=O)/C(=C/c5ccc(Cl)c(Cl)c5)C4)c3C2=O)C(=O)N1` (stereo partly shown) [WL40], the “PolyUb protein accumulation (immunoblot)” value in series [5] was “marked increase in PolyUb proteins; also recorded: more rapid and higher molecular weight PolyUb versus bortezomib”. Further, the “cell viability IC50” value in series [1] (multiple myeloma cell lines, 48 hours, Wst-1) is given as “high IC50 in several cell lines”. Besides, in series [2], the host survival entry is on record as “prolongs host survival” and the tumor growth result is “inhibits xenografted human MM cell growth; also recorded: more potent in vivo anti-MM activity”. In series [2] (WL40-treated mice), the tolerability result is listed as “well tolerated”. The body weight loss entry in series [2] (WL40-treated mice (data not shown)) is given as “no significant weight loss”. Further, in series [2] (relative to tumors from control mice), the “PolyUb proteins in harvested tumors” value is on record as “increased accumulation of PolyUb proteins”. Moreover, in series [2] (tumor sections), the “angiogenesis in harvested tumors (CD31)” value is “blocks angiogenesis”, the “apoptosis in harvested tumors (cleaved caspase-3)” value is recorded as “induces apoptosis” and the “proliferation in harvested tumors (Ki67)” value is given as “decreases proliferation”. Also, in series [3] (24 hours, Wst-1), the “cell viability IC50” value is recorded as “lower IC50 compared to compound RA190”. Also, the “combination effect on viability (isobologram, CI)” value in series [3] (WL40 plus bortezomib) is recorded as “synergistic anti-MM activity”. In series [3] (WL40 plus lenalidomide), the “combination effect on viability (isobologram, CI)” value is listed as “synergistic anti-MM activity”. The “combination effect on viability (isobologram, CI)” value in series [3] (WL40 plus pomalidomide) is recorded as “synergistic anti-MM activity”. Further, in series [4], the “Rpn13 levels (immunoblot)” value was “degrade Rpn13; also recorded: marked decrease in Rpn13 levels”. In addition, the “time at which decrease in Rpn13 levels is detectable” value in series [4] (after WL40 treatment) was 8 h. Further, the “maximal reduction of Rpn13 levels” value in series [4] (at 16 hours) is 95%.
